According to patent publication US20250223618A1, “METHOD FOR PRODUCING MULTI-HYDROXY DERIVATIVES OF POLYUNSATURATED FATTY ACIDS” (KOREA RESEARCH INSTITUTE OF BIOSCIENCE AND BIOTECHNOLOGY, priority 2018, published 2025):

What was measured:
[1] = system: human breast cancer cells MDA-MB-231; assay: Proliferation of human breast cancer cells; format: cell-based; details: same concentration as in mammospheres (0 to 60 μM), FIG. 10A
Description: (§1) The purified derivatives were treated to human beast cancer cells and human beast cancer-derived cancer stem cells and then the effects thereof were confirmed.
More specifically, first, human breast cancer cells MDA-MB-231 (ATCC) were incubated at a density of 1×10^6 cells in a 10 cm culture dish with a DMEM medium added with 10% fetal bovine serum (FBS, Hyclone), 100 U/ml penicillin, and 100 μg/ml of streptomycin (carbon dioxide 5%, 37° C.).

[2] = system: mammospheres of the human beast cancer-derived cancer stem cells; assay: Proliferation of mammospheres of breast cancer-derived cancer stem cells; format: cell-based; details: treated at the concentration of 0 to 60 μM; FIG. 10A/10B
Description: as §1
The human breast cancer cells MDA-MB-231 were incubated at a density of 0.5 to 1×10^4 cells in a ultra-low attachment 6-well plate containing 2 ml of a Complete MammoCult™ medium (StemCell Technologies, Canada) added with 4 μg/ml of heparin, 0.48 μg/ml of hydrocortisone, 100 U/ml of penicillin, and 100 μg/ml of streptomycin (carbon dioxide 5%, 37° C.) to form mammospheres of the human beast cancer-derived cancer stem cells.

[3] = molecular target: T1, Protein having amino acid sequence of SEQ ID NO: 2 (protein K9V; enzyme for producing tri-hydroxy or tetra-hydroxy derivative of polyunsaturated fatty acids) (Phormidium nigroviride, UniProt K9VMV7); assay: Reaction rate (Km, Kcat) under optimal conditions, protein of SEQ ID NO: 2; format: biochemical; details: pH 7.0, 30° C.
T1 construct: Ni-NTA purified
T1 sequence (K9VMV7 1-571): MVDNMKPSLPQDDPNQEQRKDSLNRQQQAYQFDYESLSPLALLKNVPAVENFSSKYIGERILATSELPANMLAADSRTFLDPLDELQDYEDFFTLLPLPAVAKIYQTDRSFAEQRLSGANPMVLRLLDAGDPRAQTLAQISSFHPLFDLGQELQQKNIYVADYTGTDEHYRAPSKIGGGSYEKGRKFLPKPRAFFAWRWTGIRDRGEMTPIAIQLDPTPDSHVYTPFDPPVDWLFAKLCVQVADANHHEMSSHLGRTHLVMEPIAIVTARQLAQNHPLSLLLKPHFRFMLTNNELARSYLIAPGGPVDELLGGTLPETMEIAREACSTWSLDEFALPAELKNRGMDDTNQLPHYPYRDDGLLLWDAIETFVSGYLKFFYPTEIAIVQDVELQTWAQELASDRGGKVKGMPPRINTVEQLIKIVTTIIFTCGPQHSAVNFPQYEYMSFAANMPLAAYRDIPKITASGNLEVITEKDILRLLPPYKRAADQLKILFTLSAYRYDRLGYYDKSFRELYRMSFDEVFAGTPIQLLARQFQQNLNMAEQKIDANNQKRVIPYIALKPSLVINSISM
Description: Under optimal conditions confirmed in [4-1] and [4-2] above, Km and Kcat values of the protein having the amino acid sequence of SEQ ID NO: 1 and the protein having the amino acid sequence of SEQ ID NO: 2 were examined.

[4] = molecular target: Protein having amino acid sequence of SEQ ID NO: 1 (protein K9V_A296G; enzyme for producing di-hydroxy derivative of polyunsaturated fatty acids) (Phormidium nigroviride, UniProt K9VMV7, A296G); details: pH 8.0, 20° C.
Description: At this time, 50 mM of a sodium phosphate buffer in the case of pH 7.0, 50 mM of a Tris-HCl buffer in the case of pH 8.0, and 50 mM of a sodium borate buffer in the case of pH 9.0 to pH 11.0 were used, respectively.

[5] = Effect of pH on enzyme activity (13S-hydroxy-octadecadienoic acid formed); format: biochemical; details: 10 KU/ml protein, 100 μM linoleic acid, 30 minutes
Description: (§2) In the same manner as in Example [3-1], the concentration of 13S-hydroxy-octadecadienoic acid in the reaction product was measured, and relative values thereof were compared with each other.

[6] = Effect of temperature on enzyme activity (13S-hydroxy-octadecadienoic acid formed); format: biochemical; details: 100 μM linoleic acid, pH 7, 20° C. to 50° C., 30 minutes
Description: as §2

For `CCC(O)/C=C/C=C/C=C/C(O)C/C=C/C/C=C/C/C=C/CCC(=O)O` (stereo not shown) [di-hydroxy derivative], the “proliferation of the breast cancer cells” value [1] was “no effect” and the “proliferation of the mammospheres of the beast cancer-derived cancer stem cells” value [2] was “inhibited”.

In the case of `CCCCC/C=C\C/C=C\CCCCCCCC(=O)O` [linoleic acid], the Kcat [3] is reported as 0.0067 ± 0.00033 s⁻¹, the Km [3] is reported as 79.4 ± 0.8 µM and the Kcat [4] is reported as 0.392 ± 0.0167 s⁻¹. For the same molecule, the Km [4] was 46.8 ± 1 µM.

B1: Protein having amino acid sequence of SEQ ID NO: 1: enzyme for producing a di-hydroxy derivative of polyunsaturated fatty acids, about 65 KDa, expressed in E. coli (protein)
chain: MVDNMKPSLPQDDPNQEQRKDSLNRQQQAYQFDYESLSPLALLKNVPAVENFSSKYIGERILATSELPANMLAADSRTFLDPLDELQDYEDFFTLLPLPAVAKIYQTDRSFAEQRLSGANPMVLRLLDAGDPRAQTLAQISSFHPLFDLGQELQQKNIYVADYTGTDEHYRAPSKIGGGSYEKGRKFLPKPRAFFAWRWTGIRDRGEMTPIAIQLDPTPDSHVYTPFDPPVDWLFAKLCVQVADANHHEMSSHLGRTHLVMEPIAIVTARQLAQNHPLSLLLKPHFRFMLTNNELGRSYLIAPGGPVDELLGGTLPETMEIAREACSTWSLDEFALPAELKNRGMDDTNQLPHYPYRDDGLLLWDAIETFVSGYLKFFYPTEIAIVQDVELQTWAQELASDRGGKVKGMPPRINTVEQLIKIVTTIIFTCGPQHSAVNFPQYEYMSFAANMPLAAYRDIPKITASGNLEVITEKDILRLLPPYKRAADQLKILFTLSAYRYDRLGYYDKSFRELYRMSFDEVFAGTPIQLLARQFQQNLNMAEQKIDANNQKRVIPYIALKPSLVINSISM
modifications: K9V_A296G
notes: enzyme for producing a di-hydroxy derivative of polyunsaturated fatty acids, about 65 KDa, expressed in E. coli
With B1 the “pH of better (optimal) enzyme activity” value ([5]; pH 7 to pH 11, 25° C., FIG. 8A) was roughly 8.0 and the “temperature of better (optimal) enzyme activity” value ([6]; 50 KU/ml protein, FIG. 9A) was roughly 20 °C.

B2: Protein having amino acid sequence of SEQ ID NO: 2: enzyme for producing a tri-hydroxy or tetra-hydroxy derivative of polyunsaturated fatty acids, about 65 KDa, expressed in E. coli (protein)
chain: MVDNMKPSLPQDDPNQEQRKDSLNRQQQAYQFDYESLSPLALLKNVPAVENFSSKYIGERILATSELPANMLAADSRTFLDPLDELQDYEDFFTLLPLPAVAKIYQTDRSFAEQRLSGANPMVLRLLDAGDPRAQTLAQISSFHPLFDLGQELQQKNIYVADYTGTDEHYRAPSKIGGGSYEKGRKFLPKPRAFFAWRWTGIRDRGEMTPIAIQLDPTPDSHVYTPFDPPVDWLFAKLCVQVADANHHEMSSHLGRTHLVMEPIAIVTARQLAQNHPLSLLLKPHFRFMLTNNELARSYLIAPGGPVDELLGGTLPETMEIAREACSTWSLDEFALPAELKNRGMDDTNQLPHYPYRDDGLLLWDAIETFVSGYLKFFYPTEIAIVQDVELQTWAQELASDRGGKVKGMPPRINTVEQLIKIVTTIIFTCGPQHSAVNFPQYEYMSFAANMPLAAYRDIPKITASGNLEVITEKDILRLLPPYKRAADQLKILFTLSAYRYDRLGYYDKSFRELYRMSFDEVFAGTPIQLLARQFQQNLNMAEQKIDANNQKRVIPYIALKPSLVINSISM
modifications: enzyme (K9V)
notes: enzyme for producing a tri-hydroxy or tetra-hydroxy derivative of polyunsaturated fatty acids, about 65 KDa, expressed in E. coli
For B2, the “pH of better (optimal) enzyme activity” value ([5]; pH 6 to pH 11, 25° C., FIG. 8B) was roughly 8.0 and the “temperature of better (optimal) enzyme activity” value ([6]; 10 KU/ml protein, FIG. 9B) was roughly 30 °C.
